We go through 13 molecules from EP0728012B1, “NOVEL GnRH ANALOGUES WITH ANTITUMOUR EFFECTS AND PHARMACEUTICAL COMPOSITIONS THEREOF” (Lovas, Sandor, priority 1994, dated 1996).

Like-named read-outs stand apart in the source and are kept apart here. Non-standard residues stand in square brackets, D forms with d. Residues, ends and D or L forms follow the SMILES beside them. pGlu = O=C1CC[C@@H](C(=O)O)N1

The subject of test [1] is MCF-7. Briefly: Inhibition of colony formation by GnRH analogues (dose-survival, Example 48). The class given is cell-based, human. To be noted: treated once. As to the method: (§1) The examination gives accurate information about the cell-damaging effect of the substance tested as a function of varying doses. The treatment was carried out once; the colonies formed from the surviving cells were counted after 8 - 12 days. […] A part of the arrested cells again entered the cycle, another part of them might be destroyed (apoptosis). […] In the case of a dose-response investigation, colonies containing less than 15 cells were not counted. 300 cells were put into each Petri dishes of 3.5 cm in diameter. The treatment was once carried out 24 hours after setting, then the colonies formed were counted after 8 - 12 days. The cells were treated once after 24 hours with 1-50 µM of various GnRH analogues of Examples above or with 1 - 50 µM of GnRH-III, respectively. The percentages of inhibition obtained on MCF-7, MDA-MB-231, PC3 and Ishikawa cells, respectively, together with the dose of the active agent used are shown in Table VIII.

Test [2] has as its system MDA-MB-231. Described as above. The class given is cell-based, human. As to the method: as §1
Another test has as its system PC3. The description is as above. In kind it is cell-based, human. To be noted: for % Inhibition of the colony formation: 50 µM. As to the method:
as §1

The subject of a further test is Ishikawa. Described as above. The class given is cell-based, human. As to conditions: 50 µM. As to the method:
as §1

For a further test, the system named is human tumour cell lines. Briefly: Inhibition of colony formation (Example 48), comparison with the control D-Trp^6-hGnRH. The class given is cell-based. To be noted: data of Table VIII. As to the method:
as §1
In these studies the D-Trp^6-hGnRH analogue (Sigma Co.) commonly used in the tumour therapy was employed as control.

Test [3] deals with MCF-7 human mammary carcinoma cell line. Briefly: Inhibition of colony formation (dose-survival relation, Example 18). To be noted: for inhibition of colony formation: concentration not given; for % Inhibition of colony formation: 50 µM (active substance), treated once. The class given is cell-based. As to the method: (§2) In the case of cytostatics the cell-damaging effect is not cell-specific. […] One part of the arrested cells again go into the cycle, the other part may perish (apoptosis). […] The investigations were carried out on MCF-7 and MDA-MB-231 human mammary carcinoma cell lines, PC3 human prostate 15 carcinoma cell line and Ishikawa human endometrium carcinoma cell line. Three hundred cells were set into Petri dishes of 3.5 cm in diameter each. The treatment was carried out once, 24 hours following the explantation, then the colonies formed were counted after 9 to 12 days.

Test [4] concerns Ishikawa human endometrium carcinoma cell line. The test is described as above. The class given is cell-based. To be noted: for inhibition of colony formation: concentration not given; for % Inhibition of colony formation: 50 µM. As to the method:
as §2

The test system of test [5] is MCF-7. As to conditions: MCF-7, 30 µM active substance, conjugate, treated once, cell count on 7th day. As to the method:
(§3) The procedure of treatment was as follows. After trypsinization the cells, 400,000 cells of MCF-7, MDA-MB-231 human mammary carcinoma, PC3 human prostate carcinoma or Ishikawa human endometrium tumour each were passed into Petri dishes of 10 cm in diameter. Starting from the day following transfer, the cells were treated with the substances to be tested in solution prepared with the nutrient medium during the exponential growth phase. […]

Test [6] relates to MDA-MB-231. To be noted: MDA-MB-231, 30 µM active substance, conjugate, treated once. As to the method:
as §3

Test [7] relates to PC3 human prostate carcinoma cell line. Briefly: Inhibition of colony formation (dose-survival relation, Example 18). In kind it is cell-based. As to conditions: for inhibition of colony formation: concentration not given. As to the method:
as §2

In test [8] the test system is MDA-MB-231 human mammary carcinoma cell line. The test is described as above. In kind it is cell-based. To be noted: for % Inhibition of colony formation: 50 µM. As to the method:
as §2

As to `NCCCC[C@H](NC(=O)[C@H](CO)NC(=O)[C@H](Cc1c[nH]c2ccccc12)NC(=O)[C@H](Cc1c[nH]cn1)NC(=O)[C@@H]1CCC(=O)N1)C(=O)N[C@@H](CC(=O)O)C(=O)N[C@@H](Cc1c[nH]c2ccccc12)C(=O)N[C@@H](CCCCN)C(=O)N1CCC[C@H]1C(=O)NCC(N)=O` [2. Lys^5-GnRH-III, Lys^5-GnRH-III], the “% Inhibition of the colony formation” value in the test with MCF-7 [1] (50 µM) and in the test with MDA-MB-231 [2] (50 µM) was 0% each time.
Consider `NCCCC[C@H](NC(=O)[C@H](Cc1c[nH]c2ccccc12)NC(=O)[C@H](CCC(=O)O)NC(=O)[C@H](Cc1c[nH]cn1)NC(=O)[C@H](CO)NC(=O)[C@H](Cc1c[nH]c2ccccc12)NC(=O)[C@H](Cc1c[nH]cn1)NC(=O)[C@@H]1CCC(=O)N1)C(=O)N1CCC[C@H]1C(=O)NCC(N)=O` [8. Glu^6-GnRH-III, Glu^6-GnRH-III], for which the “% Inhibition of the colony formation” value amounted to 31% in the test on PC3, 2% with Ishikawa, 44% with MCF-7 [1] (50 µM) and 25% in the test on MDA-MB-231 [2] (50 µM). For the same molecule, the “inhibitory effect compared with the control D-Trp^6-hGnRH” value with human tumour cell lines is given as “exceeded the inhibitory effect of control”.
Turning to `NCCCC[C@H](NC(=O)[C@H](Cc1cn(C=O)c2ccccc12)NC(=O)[C@H](CC(=O)O)NC(=O)[C@H](Cc1c[nH]cn1)NC(=O)[C@H](CO)NC(=O)[C@H](Cc1cn(C=O)c2ccccc12)NC(=O)[C@H](Cc1c[nH]cn1)NC(=O)[C@@H]1CCC(=O)N1)C(=O)N1CCC[C@H]1C(=O)NCC(N)=O` [14. [Trp(For-Ind)]^3,7- -GnRH-III, [Trp(For-Ind)]^3,7-GnRH-III], the “% Inhibition of the colony formation” value with Ishikawa is 24%; in the test on MCF-7 [1] (50 µM), 31%. Besides, the “inhibitory effect compared with the control D-Trp^6-hGnRH” value in the test on human tumour cell lines is recorded as “approximated the activity of the control”.
Take `NCCCC[C@H](NC(=O)[C@H](Cc1ccccc1)NC(=O)[C@H](CC(=O)O)NC(=O)[C@H](Cc1c[nH]cn1)NC(=O)[C@H](CO)NC(=O)[C@H](Cc1c[nH]c2ccccc12)NC(=O)[C@H](Cc1c[nH]cn1)NC(=O)[C@@H]1CCC(=O)N1)C(=O)N1CCC[C@H]1C(=O)NCC(N)=O` [15. Phe^7 -GnRH-III, Phe^7-GnRH-III]: the “% Inhibition of the colony formation” value in the test on MCF-7 [1] (50 µM) was determined as 26%; in the test on MDA-MB-231 [2] (50 µM) it was 21%. Besides, in the test with human tumour cell lines, the “inhibitory effect compared with the control D-Trp^6-hGnRH” value is “a weak if any effect”.
In the case of `CC(C)C[C@H](NC(=O)[C@@H](Cc1c[nH]c2ccccc12)NC(=O)[C@H](CCCCN)NC(=O)[C@H](CO)NC(=O)[C@H](Cc1c[nH]c2ccccc12)NC(=O)[C@H](Cc1c[nH]cn1)NC(=O)[C@@H]1CCC(=O)N1)C(=O)N[C@@H](CCCNC(=N)N)C(=O)N1CCC[C@H]1C(=O)NCC(N)=O` [17. Lys^5-DTrp^6-hGnRH, Lys^5,D-Trp^6-hGnRH] ([pGlu]HWSK[dW]LRPG-NH2), the “% Inhibition of the colony formation” value was 18% in the test with PC3; 17% with Ishikawa; 15% in the test on Ishikawa (listed as compound 17, 50 µM); 39% with MCF-7 [1] (10 µM); 65% in the test on MCF-7 [1] (50 µM); 30% with MDA-MB-231 [2] (10 µM). Besides, the “% Inhibition of the colony formation” value in the test on MDA-MB-231 [2] (50 µM) turned out to be 63%. Moreover, the “inhibition of colony formation” value with PC3 (within the dose range used (1-50 µM)) is reported as “weakly inhibited”. For the same molecule, the “inhibitory effect compared with the control D-Trp^6-hGnRH” value in the test with human tumour cell lines is “a twice stronger inhibition”.
With `CC(C)C[C@H](NC(=O)[C@@H](Cc1c[nH]c2ccccc12)NC(=O)[C@H](Cc1ccc(O)cc1)NC(=O)[C@H](CO)NC(=O)[C@H](Cc1c[nH]c2ccccc12)NC(=O)[C@H](Cc1c[nH]cn1)NC(=O)[C@@H](N)CCC(=O)O)C(=O)N[C@@H](CCCNC(=N)N)C(=O)N1CCC[C@H]1C(=O)NCC(N)=O` [19. H-Glu^1,D-Trp^6 - hGnRH, H-Glu^1,D-Trp^6-hGnRH], the “% Inhibition of the colony formation” value worked out at 16.8% in the test on MCF-7 [1] (10 µM) and 32.7% in the test with MCF-7 [1] (50 µM). In addition, the “inhibitory effect compared with the control D-Trp^6-hGnRH” value in the test with human tumour cell lines is on record as “approximated the activity of the control”.
As to `NCCCC[C@H](NC(=O)[C@H](Cc1c[nH]c2ccccc12)NC(=O)[C@H](CC(=O)O)NC(=O)[C@H](CCCCNC(=O)OCC1c2ccccc2-c2ccccc21)NC(=O)[C@H](CO)NC(=O)[C@H](Cc1c[nH]c2ccccc12)NC(=O)[C@H](Cc1c[nH]cn1)NC(=O)[C@@H]1CCC(=O)N1)C(=O)N1CCC[C@H]1C(=O)NCC(N)=O` [Example 26, [Lys(εFmoc)]^5-GnRH-III], the “inhibitory effect compared with the control D-Trp^6-hGnRH” value with human tumour cell lines is reported as “a weak if any effect”.
On to `NCCCC[C@H](NC(=O)[C@H](CO)NC(=O)[C@H](Cc1c[nH]c2ccccc12)NC(=O)[C@H](Cc1c[nH]cn1)NC(=O)[C@@H]1CCC(=O)N1)C(=O)N[C@H]1CC(=O)NCCCC[C@@H](C(=O)N2CCC[C@H]2C(=O)NCC(N)=O)NC(=O)[C@H](Cc2c[nH]c3ccccc23)NC1=O` [Lys^5, cyclo[Asp^6-Lys^8]-GnRH-III], for which the “inhibition of colony formation” value in test [3] is on record as 44%; in test [4], 13%. Further, the “% Inhibition of the colony formation” value in the test with Ishikawa was 13%; with MCF-7 [1] (50 µM), 44%. Besides, the “inhibitory effect compared with the control D-Trp^6-hGnRH” value in the test with human tumour cell lines was “exceeded the inhibitory effect of control”.
As to “Ac-D-Trip^1,3,D-Cpa^2,{Lys[n-poly(N-vinylpyrrolidone-co-maleic acid)-Gly-Leu-Gly-]}^5,[a-Asp(DEA)]^6, D-Ala^10-GnRH [P-GLG-1892]”, the “% Inhibition of cell division (proliferation)” value turned out to be 33% with MCF-7 [5] (listed as 13. P-GLG-MI-1892) and 35% in the test with MDA-MB-231 [6] (listed as 13. P-GLG-MI-1892).
As to “Ac-D-Trp^1,3,D-Cpa^2,{Lys[n-poly(N-vinylpyrrolidone-co-maleic acid)-Phe-Leu-Gly-]}^5,a-Asp (DEA)]^6,D-Ala^10-GnRH [P-FLG-1892]”, the “% Inhibition of cell division (proliferation)” value is given as 33% in the test with MCF-7 [5] (listed as 12. P-FLG-MI-1892) and 35% with MDA-MB-231 [6] (listed as 12. P-FLG-MI-1892).
Consider “pGlu-His-Trp-Ser-Tyr-D-Trp-Leu-Arg-Pro-Gly-NH2 [D-Trp^6-hGnRH (Decapeptyl), reference compound]”, for which the “% Inhibition of the colony formation” value in the test on MCF-7 [1] (10 µM) was determined as 17.1%; in the test on MCF-7 [1] (50 µM), 36.7%; in the test on MDA-MB-231 [2] (10 µM), 15.7%; with MDA-MB-231 [2] (50 µM), 38.7%.
Turning to “{Lys[n-poly(N-vinylpyrrolidone-co-maleic acid)-Gly-Phe-Leu-Gly-]}^4,-GnRH-III [P-GFLG-Lys^4-GnRH-III]”, the “% Inhibition of colony formation” value is reported as 68% in [3], 94% in test [7] (30 µM), 75% in [8] and 25% in test [4]. Also, the “inhibition of colony formation” value was 68% in [3], 94% in [7], 75% in test [8] (concentration not given) and 25% in test [4].
Turning to “{Lys[n-poly(N-vinylpyrrolidone-co-maleic acid)-Gly-Phe-Leu-Gly-]}^5,cyclo(Asp^6-Lys^8)-GnRH-III [P-GFLG-Lys^5-cyclo(Asp^6,Lys^8)-GnRH-III]”, the “% Inhibition of colony formation” value in test [3] came to 78%; in test [7] (50 µM), 100%; in test [8], 82%; in [4], 19%. The “inhibition of colony formation” value in [7] stood at 100%; in [4] it was 19%.
